# Values quoted from earlier work, collected in patent publication US6656923B1, “Uncomplexed cyclodextrin compositions for odor and wrinkle control” (The Procter & Gamble Company, priority 1997, dated 2003).
smiles,measurement,value
"ClC=CC[N+]12CN3CN(CN(C3)C1)C2.[Cl-] [Dowicil 200, 1-(3-Chlorallyl)-3,5,7-triaza-1-azoniaadamantane chloride]",solubility in water,freely soluble in water
